Results reported in patent US11479551B2, “MTA-cooperative PRMT5 inhibitors” (Mirati Therapeutics, Inc., priority 2019, dated 2022).
pIC50: −log10 of the molar value. Read-outs that look alike come from different tables or passages of the source.

Target: PRMT5/MEP50 complex (Homo sapiens (Human), UniProt O14744)
Assay: PRMT5:MEP50 FlashPlate Assay (histone H4 peptide substrate, plus and minus MTA)
Assay type: biochemical
Conditions: for IC50: IC50 + 2 μM MTA (nM), in the presence of 2 μM MTA; for pIC50: in the absence of MTA, read-out: IC50
Experimental: The PRMT5 inhibitory activity of compounds of the present invention was determined using either a PRMT5:MEP50 FlashPlate Assay (Reaction Biology Corporation) or a PRMT5:MEP50 HotSpot Assay (Reaction Biology Corporation).
1. PRMT5:MEP50 FlashPlate Assay

Chain of PRMT5/MEP50 complex (O14744 2-637): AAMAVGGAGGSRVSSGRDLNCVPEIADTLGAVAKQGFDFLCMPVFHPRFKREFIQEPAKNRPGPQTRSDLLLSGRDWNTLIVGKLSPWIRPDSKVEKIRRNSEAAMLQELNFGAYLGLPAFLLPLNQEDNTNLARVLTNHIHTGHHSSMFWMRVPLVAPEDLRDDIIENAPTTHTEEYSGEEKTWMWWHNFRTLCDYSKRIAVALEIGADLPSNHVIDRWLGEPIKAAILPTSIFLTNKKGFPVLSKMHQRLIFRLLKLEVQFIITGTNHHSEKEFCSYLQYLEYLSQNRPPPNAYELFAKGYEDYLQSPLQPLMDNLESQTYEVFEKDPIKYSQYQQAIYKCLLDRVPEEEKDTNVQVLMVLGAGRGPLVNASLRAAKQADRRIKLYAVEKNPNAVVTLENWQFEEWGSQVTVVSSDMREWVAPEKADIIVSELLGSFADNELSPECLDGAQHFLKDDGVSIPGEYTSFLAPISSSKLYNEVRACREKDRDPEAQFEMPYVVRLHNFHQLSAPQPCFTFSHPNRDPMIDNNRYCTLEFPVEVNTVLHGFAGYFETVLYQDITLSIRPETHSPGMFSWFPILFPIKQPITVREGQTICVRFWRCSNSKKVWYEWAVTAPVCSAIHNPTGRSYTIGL
Chain of PRMT5/MEP50 complex (Q9BQA1 2-342 partner): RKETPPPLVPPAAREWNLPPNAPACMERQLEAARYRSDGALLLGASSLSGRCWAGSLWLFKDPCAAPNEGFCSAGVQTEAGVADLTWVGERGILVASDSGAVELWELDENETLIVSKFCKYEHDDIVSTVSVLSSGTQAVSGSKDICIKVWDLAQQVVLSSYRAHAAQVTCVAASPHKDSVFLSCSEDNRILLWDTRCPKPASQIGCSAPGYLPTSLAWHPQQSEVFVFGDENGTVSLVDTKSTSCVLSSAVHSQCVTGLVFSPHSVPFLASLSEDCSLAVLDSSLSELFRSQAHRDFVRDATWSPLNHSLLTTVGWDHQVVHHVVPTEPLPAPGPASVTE

Row | SMILES | IC50 [nM] | pIC50
1 | Cc1ncc(-c2ccc3c(=O)[nH]nc(CN)c3c2)n1C [Example 4-4, 4-(aminomethyl)-6-(1,2-dimethyl-1H-imidazol-5-yl)phthalazin-1(2H)-one] | 230 | 5.23
2 | Cc1c(-c2ccc3c(=O)[nH]nc(CN)c3c2)cncc1C1CC1 [Example 4-5, 4-(aminomethyl)-6-(5-cyclopropyl-4-methylpyridin-3-yl)phthalazin-1(2H)-one] | 150 | 5.76
3 | N#Cc1ncccc1-c1ccc2c(=O)[nH]nc(CN)c2c1 [Example 4-7, 3-(4-(aminomethyl)-1-oxo-1,2-dihydrophthalazin-6-yl)picolinonitrile] | 8400 | < 4.00
4 | Cn1ncc(-c2cncc(-c3ccc4c(=O)[nH]nc(CN)c4c3)c2)c1C#N [Example 4-8, 4-(5-(4-(aminomethyl)-1-oxo-1,2-dihydrophthalazin-6-yl)pyridin-3-yl)-1-methyl-1H-pyrazole-5-carbonitrile] | 440 | < 4.00
5 | NCc1n[nH]c(=O)c2ccc(-c3cncc(OC(F)(F)F)c3)cc12 [Example 4-9, 4-(aminomethyl)-6-(5-(trifluoromethoxy)pyridin-3-yl)phthalazin-1(2H)-one] | 590 | 4.80
6 | N#Cc1ccn(-c2cncc(-c3ccc4c(=O)[nH]nc(CN)c4c3)c2)n1 [Example 4-10, 1-(5-(4-(aminomethyl)-1-oxo-1,2-dihydrophthalazin-6-yl)pyridin-3-yl)-1H-pyrazole-3-carbonitrile] | 1000 | < 4.00
7 | CN1CCn2ncc(-c3ccc4c(=O)[nH]nc(CN)c4c3)c2C1 [Example 4-11, 4-(aminomethyl)-6-(5-methyl-4,5,6,7-tetrahydropyrazolo[1,5-a]pyrazin-3-yl)phthalazin-1(2H)-one] | 110 | 5.62
8 | NCc1n[nH]c(=O)c2ccc(-c3cncc4nccn34)cc12 [Example 4-12, 4-(aminomethyl)-6-(imidazo[1,2-a]pyrazin-5-yl)phthalazin-1(2H)-one] | 7400 | < 4.00
9 | NCc1n[nH]c(=O)c2ccc(-c3cncn4cccc34)cc12 [Example 4-13, 4-(aminomethyl)-6-(pyrrolo[1,2-c]pyrimidin-4-yl)phthalazin-1(2H)-one] | 210 | 5.59
10 | Cc1nc2ccc(Cl)nn2c1-c1ccc2c(=O)[nH]nc(CN)c2c1 [Example 4-14, 4-(aminomethyl)-6-(6-chloro-2-methylimidazo[1,2-b]pyridazin-3-yl)phthalazin-1(2H)-one] | 7900 | < 4.00
11 | N#Cc1ccc2ncc(-c3ccc4c(=O)[nH]nc(CN)c4c3)n2c1 [Example 4-15, 3-(4-(aminomethyl)-1-oxo-1,2-dihydrophthalazin-6-yl)imidazo[1,2-a]pyridine-6-carbonitrile] | 260 | 5.41
12 | Cc1ccc2ncc(-c3ccc4c(=O)[nH]nc(CN)c4c3)n2n1 [Example 4-17, 4-(aminomethyl)-6-(6-methylimidazo[1,2-b]pyridazin-3-yl)phthalazin-1(2H)-one] | 150 | 5.69
13 | NCc1n[nH]c(=O)c2ccc(-c3cnc4ccc(Cl)nn34)cc12 [Example 4-18, 4-(aminomethyl)-6-(6-chloroimidazo[1,2-b]pyridazin-3-yl)phthalazin-1(2H)-one] | 280 | 5.35
14 | COc1ccn2c(-c3ccc4c(=O)[nH]nc(CN)c4c3)cnc2c1 [Example 4-19, 4-(aminomethyl)-6-(7-methoxyimidazo[1,2-a]pyridin-3-yl)phthalazin-1(2H)-one] | 380 | < 4.00
15 | Cc1ccc2ncc(-c3ccc4c(=O)[nH]nc(CN)c4c3)n2c1 [Example 4-20, 4-(aminomethyl)-6-(6-methylimidazo[1,2-a]pyridin-3-yl)phthalazin-1(2H)-one] | 47 | 5.99
16 | NCc1n[nH]c(=O)c2ccc(-c3cnc4ccc(F)cn34)cc12 [Example 4-21, 4-(aminomethyl)-6-(6-fluoroimidazo[1,2-a]pyridin-3-yl)phthalazin-1(2H)-one] | 70 | 5.71
17 | NCc1n[nH]c(=O)c2ccc(-c3cnc4c(F)cccn34)cc12 [Example 4-22, 4-(aminomethyl)-6-(8-fluoroimidazo[1,2-a]pyridin-3-yl)phthalazin-1(2H)-one] | 370 | 5.06
18 | Cc1nc2cnccn2c1-c1ccc2c(=O)[nH]nc(CN)c2c1 [Example 4-23, 4-(aminomethyl)-6-(2-methylimidazo[1,2-a]pyrazin-3-yl)phthalazin-1(2H)-one] | > 100000 | < 4.00

Further lines, results first:

Row | IC50 [nM] | pIC50 | SMILES
19 | 840 | 4.87 | Cc1cn2c(-c3ccc4c(=O)[nH]nc(CN)c4c3)cnc2cn1 [Example 4-24, 4-(aminomethyl)-6-(6-methylimidazo[1,2-a]pyrazin-3-yl)phthalazin-1(2H)-one]
20 | 1700 | < 4.00 | NCc1n[nH]c(=O)c2ccc(-c3cnc4cnccn34)cc12 [Example 4-25, 4-(aminomethyl)-6-(imidazo[1,2-a]pyrazin-3-yl)phthalazin-1(2H)-one]
21 | 130 | 5.76 | NCc1n[nH]c(=O)c2ccc(-c3cnc4cccnn34)cc12 [Example 4-26, 4-(aminomethyl)-6-(imidazo[1,2-b]pyridazin-3-yl)phthalazin-1(2H)-one]
22 | 1300 | < 4.00 | NCc1n[nH]c(=O)c2ccc(-c3cnc4c(F)cc(Cl)cn34)cc12 [Example 4-27, 4-(aminomethyl)-6-(6-chloro-8-fluoroimidazo[1,2-a]pyridin-3-yl)phthalazin-1(2H)-one]
23 | 140 | 5.17 | NCc1n[nH]c(=O)c2ccc(-c3cnc4cc(Cl)ccn34)cc12 [Example 4-28, 4-(aminomethyl)-6-(7-chloroimidazo[1,2-a]pyridin-3-yl)phthalazin-1(2H)-one]
24 | 190 | 5.39 | NCc1n[nH]c(=O)c2ccc(-c3cnc4cc(F)ccn34)cc12 [Example 4-29, 4-(aminomethyl)-6-(7-fluoroimidazo[1,2-a]pyridin-3-yl)phthalazin-1(2H)-one]
25 | 400 | 5.32 | Cc1ccn2c(-c3ccc4c(=O)[nH]nc(CN)c4c3)cnc2c1 [Example 4-30, 4-(aminomethyl)-6-(7-methylimidazo[1,2-a]pyridin-3-yl)phthalazin-1(2H)-one]
26 | 410 | 5.12 | Cn1ncc(-c2ccc3c(=O)[nH]nc(CN)c3c2)c1C#N [Example 4-31, 4-(4-(aminomethyl)-1-oxo-1,2-dihydrophthalazin-6-yl)-1-methyl-1H-pyrazole-5-carbonitrile]
27 | > 100000 | < 4.00 | Cc1nc2ccc(F)cn2c1-c1ccc2c(=O)[nH]nc(CN)c2c1 [Example 4-33, 4-(aminomethyl)-6-(6-fluoro-2-methylimidazo[1,2-a]pyridin-3-yl)phthalazin-1(2H)-one]
28 | 110 | 5.55 | NCc1n[nH]c(=O)c2ccc(-c3cnc4ccc(Cl)cn34)cc12 [Example 4-34, 4-(aminomethyl)-6-(6-chloroimidazo[1,2-a]pyridin-3-yl)phthalazin-1(2H)-one]
29 | 1100 | < 4.00 | N#Cc1ccn2c(-c3ccc4c(=O)[nH]nc(CN)c4c3)cnc2c1 [Example 4-35, 3-(4-(aminomethyl)-1-oxo-1,2-dihydrophthalazin-6-yl)imidazo[1,2-a]pyridine-7-carbonitrile]
